From patent publication US12459918B2, “Isoquinolinone derivatives serving as rock protein kinase inhibitors and use thereof” (GUANGZHOU OCUSUN OPHTHALMIC BIOTECHNOLOGY CO., LTD., priority 2019, dated 2025)

Tested on: New Zealand rabbits with normal intraocular pressure
Experiment: Reduction of intraocular pressure by repeated eye-drop administration for 14 days, experiment operation 1
Format: in vivo
Conditions: for Change of intraocular pressure: negative control minus group
Source text: Experimental example 4. Experiment on reduction of intraocular pressure and ocular toxicity of New Zealand rabbits with normal intraocular pressure by repeated eye-drop administration for 14 days
The intraocular pressure reduction action and the potential ocular toxicity of compound 63 were explored by 14 days of repeated eye-drop administration in rabbits with normal intraocular pressure.
Male New Zealand rabbits, aged 97-127 days, weighted 2.6-3.5 kg, purchased from PizhouDongfang Breeding Co. Ltd.
The male New Zealand rabbits were randomly divided into 7 groups, with 6 rabbits per group. Animals were randomly divided according to body weight Animals in 1-7 groups were eye-dropped with solvent/control sample/test sample in both eyes, the volume of the administration was all 50 μL/eye, once per day for 14 consecutive days, and the day of the administration was recorded as Day 1. On Day 1, intraocular pressure of the animals was measured before the administration and in 1, 2, 4, 6, 8 and 10 hours after the administration, respectively; on Days 2-14, intraocular pressure of the animals was measured in 1 hour after daily administration for the group administered with K-115, and intraocular pressure of the animal was measured in 4 hours after daily administration for the other groups.

[1] = 0.5 mg/mL once per day, Day 2, 4 hours after daily administration
[2] = 0.5 mg/mL once per day, Day 3, 4 hours after daily administration
[3] = 0.5 mg/mL once per day, Day 4, 4 hours after daily administration
[4] = 0.5 mg/mL once per day, Day 5, 4 hours after daily administration
[5] = 0.5 mg/mL once per day, Day 6, 4 hours after daily administration
[6] = 0.5 mg/mL once per day, Day 7, 4 hours after daily administration
[7] = 1.0 mg/mL once per day, Day 2, 4 hours after daily administration
[8] = 1.0 mg/mL once per day, Day 3, 4 hours after daily administration
[9] = 1.0 mg/mL once per day, Day 4, 4 hours after daily administration
[10] = 1.0 mg/mL once per day, Day 5, 4 hours after daily administration
[11] = 1.0 mg/mL once per day, Day 6, 4 hours after daily administration
[12] = 1.0 mg/mL once per day, Day 7, 4 hours after daily administration
[13] = 2.0 mg/mL once per day, Day 2, 4 hours after daily administration
[14] = 2.0 mg/mL once per day, Day 3, 4 hours after daily administration
[15] = 2.0 mg/mL once per day, Day 4, 4 hours after daily administration
[16] = 2.0 mg/mL once per day, Day 5, 4 hours after daily administration
[17] = 2.0 mg/mL once per day, Day 6, 4 hours after daily administration
[18] = 2.0 mg/mL once per day, Day 7, 4 hours after daily administration

Cc1ccc(C(=O)OCn2cc(C)c3c(S(=O)(=O)N4CC[C@H](N)C4)cccc3c2=O)c(C)c1 [Compound 63]
Mean intraocular pressure of both eyes (0.5 mg/mL both eyes, Day 1, 1 hour after administration): 8.83 mmHg
Mean intraocular pressure of both eyes (0.5 mg/mL both eyes, Day 1, 2 hours after administration): 7.56 mmHg
Mean intraocular pressure of both eyes (0.5 mg/mL both eyes, Day 1, 4 hours after administration): 7.11 mmHg
Mean intraocular pressure of both eyes (0.5 mg/mL both eyes, Day 1, 6 hours after administration): 9.61 mmHg
Mean intraocular pressure of both eyes (0.5 mg/mL both eyes, Day 1, 8 hours after administration): 9.06 mmHg
Mean intraocular pressure of both eyes (0.5 mg/mL both eyes, Day 1, 10 hours after administration): 9.97 mmHg
Mean intraocular pressure of both eyes (0.5 mg/mL both eyes, Day 1, before administration): 10.11 mmHg
Mean intraocular pressure of both eyes [1]: 7.94 mmHg
Change of intraocular pressure [1]: 3.14 mmHg
Mean intraocular pressure of both eyes [2]: 7.31 mmHg
Change of intraocular pressure [2]: 3.08 mmHg
Mean intraocular pressure of both eyes [3]: 7.78 mmHg
Change of intraocular pressure [3]: 2.83 mmHg
Mean intraocular pressure of both eyes [4]: 7.19 mmHg
Change of intraocular pressure [4]: 3.78 mmHg
Mean intraocular pressure of both eyes [5]: 6.61 mmHg
Change of intraocular pressure [5]: 2.7 mmHg
Mean intraocular pressure of both eyes [6]: 6.00 mmHg
Change of intraocular pressure [6]: 4.06 mmHg
Change of intraocular pressure (0.5 mg/mL once per day, Day 8, 4 hours after daily administration): 4.2 mmHg
Change of intraocular pressure (0.5 mg/mL once per day, Day 9, 4 hours after daily administration): 3.25 mmHg
Change of intraocular pressure (0.5 mg/mL once per day, Day 10, 4 hours after daily administration): 3 mmHg
Change of intraocular pressure (0.5 mg/mL once per day, Day 11, 4 hours after daily administration): 3.25 mmHg
Change of intraocular pressure (0.5 mg/mL once per day, Day 12, 4 hours after daily administration): 3.28 mmHg
Change of intraocular pressure (0.5 mg/mL once per day, Day 13, 4 hours after daily administration): 3.31 mmHg
Change of intraocular pressure (0.5 mg/mL once per day, Day 14, 4 hours after daily administration): 3.72 mmHg
Change of intraocular pressure (0.5 mg/mL, Day 1, 1 hour after administration): 1.48 mmHg
Change of intraocular pressure (0.5 mg/mL, Day 1, 2 hours after administration): 3.41 mmHg
Change of intraocular pressure (0.5 mg/mL, Day 1, 4 hours after administration): 4.2 mmHg
Change of intraocular pressure (0.5 mg/mL, Day 1, 6 hours after administration): 2.33 mmHg
Change of intraocular pressure (0.5 mg/mL, Day 1, 8 hours after administration): 3.91 mmHg
Change of intraocular pressure (0.5 mg/mL, Day 1, 10 hours after administration): 4.45 mmHg
Change of intraocular pressure (0.5 mg/mL, Day 1, before administration): −0.22 mmHg
Mean intraocular pressure of both eyes (1.0 mg/mL both eyes, Day 1, 1 hour after administration): 7.08 mmHg
Mean intraocular pressure of both eyes (1.0 mg/mL both eyes, Day 1, 2 hours after administration): 6.67 mmHg
Mean intraocular pressure of both eyes (1.0 mg/mL both eyes, Day 1, 4 hours after administration): 6.44 mmHg
Mean intraocular pressure of both eyes (1.0 mg/mL both eyes, Day 1, 6 hours after administration): 8.00 mmHg
Mean intraocular pressure of both eyes (1.0 mg/mL both eyes, Day 1, 8 hours after administration): 9.22 mmHg
Mean intraocular pressure of both eyes (1.0 mg/mL both eyes, Day 1, 10 hours after administration): 10.56 mmHg
Mean intraocular pressure of both eyes (1.0 mg/mL both eyes, Day 1, before administration): 9.94 mmHg
Mean intraocular pressure of both eyes [7]: 7.64 mmHg
Change of intraocular pressure [7]: 3.44 mmHg
Mean intraocular pressure of both eyes [8]: 7.50 mmHg
Change of intraocular pressure [8]: 2.89 mmHg
Mean intraocular pressure of both eyes [9]: 7.33 mmHg
Change of intraocular pressure [9]: 3.28 mmHg
Mean intraocular pressure of both eyes [10]: 7.44 mmHg
Change of intraocular pressure [10]: 3.53 mmHg
Mean intraocular pressure of both eyes [11]: 6.92 mmHg
Change of intraocular pressure [11]: 2.39 mmHg
Mean intraocular pressure of both eyes [12]: 7.00 mmHg
Change of intraocular pressure [12]: 3.06 mmHg
Change of intraocular pressure (1.0 mg/mL once per day, Day 8, 4 hours after daily administration): 4.03 mmHg
Change of intraocular pressure (1.0 mg/mL once per day, Day 9, 4 hours after daily administration): 2.5 mmHg
Change of intraocular pressure (1.0 mg/mL once per day, Day 10, 4 hours after daily administration): 2.44 mmHg
Change of intraocular pressure (1.0 mg/mL once per day, Day 11, 4 hours after daily administration): 2.19 mmHg
Change of intraocular pressure (1.0 mg/mL once per day, Day 12, 4 hours after daily administration): 2.64 mmHg
Change of intraocular pressure (1.0 mg/mL once per day, Day 13, 4 hours after daily administration): 3.33 mmHg
Change of intraocular pressure (1.0 mg/mL once per day, Day 14, 4 hours after daily administration): 3.53 mmHg
Change of intraocular pressure (1.0 mg/mL, Day 1, 1 hour after administration): 3.23 mmHg
Change of intraocular pressure (1.0 mg/mL, Day 1, 2 hours after administration): 4.3 mmHg
Change of intraocular pressure (1.0 mg/mL, Day 1, 4 hours after administration): 4.87 mmHg
Change of intraocular pressure (1.0 mg/mL, Day 1, 6 hours after administration): 3.94 mmHg
Change of intraocular pressure (1.0 mg/mL, Day 1, 8 hours after administration): 3.75 mmHg
Change of intraocular pressure (1.0 mg/mL, Day 1, 10 hours after administration): 3.86 mmHg
Change of intraocular pressure (1.0 mg/mL, Day 1, before administration): −0.05 mmHg
Mean intraocular pressure of both eyes (2.0 mg/mL both eyes, Day 1, 1 hour after administration): 8.56 mmHg
Mean intraocular pressure of both eyes (2.0 mg/mL both eyes, Day 1, 2 hours after administration): 7.47 mmHg
Mean intraocular pressure of both eyes (2.0 mg/mL both eyes, Day 1, 4 hours after administration): 7.47 mmHg
Mean intraocular pressure of both eyes (2.0 mg/mL both eyes, Day 1, 6 hours after administration): 7.25 mmHg
Mean intraocular pressure of both eyes (2.0 mg/mL both eyes, Day 1, 8 hours after administration): 8.44 mmHg
Mean intraocular pressure of both eyes (2.0 mg/mL both eyes, Day 1, 10 hours after administration): 9.67 mmHg
Mean intraocular pressure of both eyes (2.0 mg/mL both eyes, Day 1, before administration): 9.67 mmHg
Mean intraocular pressure of both eyes [13]: 7.03 mmHg
Change of intraocular pressure [13]: 4.05 mmHg
Mean intraocular pressure of both eyes [14]: 7.25 mmHg
Change of intraocular pressure [14]: 3.14 mmHg
Mean intraocular pressure of both eyes [15]: 6.86 mmHg
Change of intraocular pressure [15]: 3.75 mmHg
Mean intraocular pressure of both eyes [16]: 6.47 mmHg
Change of intraocular pressure [16]: 4.5 mmHg
Mean intraocular pressure of both eyes [17]: 5.92 mmHg
Change of intraocular pressure [17]: 3.39 mmHg
Mean intraocular pressure of both eyes [18]: 5.78 mmHg
Change of intraocular pressure [18]: 4.28 mmHg
Change of intraocular pressure (2.0 mg/mL once per day, Day 8, 4 hours after daily administration): 4.53 mmHg
Change of intraocular pressure (2.0 mg/mL once per day, Day 9, 4 hours after daily administration): 3.72 mmHg
Change of intraocular pressure (2.0 mg/mL once per day, Day 10, 4 hours after daily administration): 3.81 mmHg
Change of intraocular pressure (2.0 mg/mL once per day, Day 11, 4 hours after daily administration): 3.66 mmHg
Change of intraocular pressure (2.0 mg/mL once per day, Day 12, 4 hours after daily administration): 3.5 mmHg
Change of intraocular pressure (2.0 mg/mL once per day, Day 13, 4 hours after daily administration): 4.28 mmHg
Change of intraocular pressure (2.0 mg/mL once per day, Day 14, 4 hours after daily administration): 3.91 mmHg
Change of intraocular pressure (2.0 mg/mL, Day 1, 1 hour after administration): 1.75 mmHg
Change of intraocular pressure (2.0 mg/mL, Day 1, 2 hours after administration): 3.5 mmHg
Change of intraocular pressure (2.0 mg/mL, Day 1, 4 hours after administration): 3.84 mmHg
Change of intraocular pressure (2.0 mg/mL, Day 1, 6 hours after administration): 4.69 mmHg
Change of intraocular pressure (2.0 mg/mL, Day 1, 8 hours after administration): 4.53 mmHg
Change of intraocular pressure (2.0 mg/mL, Day 1, 10 hours after administration): 4.75 mmHg
Change of intraocular pressure (2.0 mg/mL, Day 1, before administration): 0.22 mmHg
Mean intraocular pressure of both eyes (4 mg/mL both eyes, Day 1, 1 hour after administration): 10.44 mmHg
Mean intraocular pressure of both eyes (4 mg/mL both eyes, Day 1, 2 hours after administration): 7.81 mmHg
